The supplement of paper PMC10307832

Tests used:
Test in all cases: relative viability (nuclei count vs DMSO), 5 days (fraction); higher = more cells survive
[1] = compound: CC1CC(=O)N(C2=CN=C(N=C2N1C3CCCC3)NC4=C(C=C(C=C4)C(=O)NC5CCN(CC5)C)OC)C [NPK76-II-72-1] + CS(=O)(=O)CCNCc1ccc(-c2ccc3ncnc(Nc4ccc(OCc5cccc(F)c5)c(Cl)c4)c3c2)o1 [Lapatinib] (partner 2 µM)
In short: (§1)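 Nuclei were stained with Hoechst during a one-step fixation (final 0.05% Triton X-100, 1% formaldehyde, 1 ug/ml Hoechst) carried out 5 days after dosing, then counted on 4× images. The cells, lung cancer lines in 1536-well plates, had been dosed by pin tool the day after seeding with one drug alone or a fixed anchor-drug dose plus five library-drug doses (not always all listed) in √10 steps. Relative viability is the nuclei count in treated wells divided by that in vehicle wells, and each value is the median of duplicate plates.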

NPK76-II-72-1 + Olaparib = compound: CC1CC(=O)N(C2=CN=C(N=C2N1C3CCCC3)NC4=C(C=C(C=C4)C(=O)NC5CCN(CC5)C)OC)C [NPK76-II-72-1] + O=C(c1cc(Cc2n[nH]c(=O)c3ccccc23)ccc1F)N1CCN(C(=O)C2CC2)CC1 [Olaparib] (partner 8 µM)
In short: as §1

BI-2536 + Tozasertib = compound: CC[C@@H]1C(=O)N(C)c2cnc(Nc3ccc(C(=O)NC4CCN(C)CC4)cc3OC)nc2N1C1CCCC1 [BI-2536] + Cc1cc(Nc2cc(N3CCN(C)CC3)nc(Sc3ccc(NC(=O)C4CC4)cc3)n2)n[nH]1 [Tozasertib] (partner 0.1 µM)
In short: as §1

BI-2536 + Decitabine = compound: CC[C@@H]1C(=O)N(C)c2cnc(Nc3ccc(C(=O)NC4CCN(C)CC4)cc3OC)nc2N1C1CCCC1 [BI-2536] + Nc1ncn([C@H]2C[C@H](O)[C@@H](CO)O2)c(=O)n1 [Decitabine] (partner 2 µM)
In short: as §1

Cell Line | relative viability ([1]; first compound 0.01 µM) | relative viability ([1]; first compound 0.03162 µM) | relative viability ([1]; first compound 0.1 µM) | relative viability ([1]; first compound 1 µM) | relative viability (NPK76-II-72-1 + Olaparib; first compound 0.01 µM) | relative viability (NPK76-II-72-1 + Olaparib; first compound 0.03162 µM) | relative viability (NPK76-II-72-1 + Olaparib; first compound 0.1 µM) | relative viability (NPK76-II-72-1 + Olaparib; first compound 0.3162 µM) | relative viability (NPK76-II-72-1 + Olaparib; first compound 1 µM) | relative viability (BI-2536 + Tozasertib; first compound 0.01 µM) | relative viability (BI-2536 + Tozasertib; first compound 0.03162 µM) | relative viability (BI-2536 + Tozasertib; first compound 0.1 µM) | relative viability (BI-2536 + Tozasertib; first compound 0.3162 µM) | relative viability (BI-2536 + Tozasertib; first compound 1 µM) | relative viability (BI-2536 + Decitabine; first compound 0.01 µM) | relative viability (BI-2536 + Decitabine; first compound 0.03162 µM) | relative viability (BI-2536 + Decitabine; first compound 0.1 µM) | relative viability (BI-2536 + Decitabine; first compound 0.3162 µM) | relative viability (BI-2536 + Decitabine; first compound 1 µM) | relative viability ([1]; first compound 0.3162 µM)
NCI-H650 | 1.17 | 0.912 | 0.723 | 0.925 | 0.391 | 0.316 | 0.397 | 0.354 | 0.489 | 0.64 | 0.529 | 0.358 | 0.181 | 0.16 | 0.303 | 0.328 | 0.246 | 0.146 | 0.126 | –
NCI-H661 | 0.398 | 0.532 | 0.562 | 0.513 | 0.697 | 0.705 | 0.778 | 0.666 | 0.83 | 0.367 | 0.373 | 0.384 | 0.316 | 0.31 | 0.534 | 0.424 | 0.278 | 0.253 | 0.265 | 0.473
NCI-H727 | 0.97 | 1.04 | 0.81 | 0.884 | 0.957 | 0.774 | 0.655 | 0.699 | 0.679 | 0.646 | 0.695 | 0.672 | 0.496 | 0.392 | 0.819 | 0.841 | 0.849 | 0.477 | 0.372 | 0.979
NCI-H838 | 0.951 | 1.08 | 1.05 | 1.09 | 0.712 | 0.846 | 0.768 | 0.738 | 0.805 | 0.239 | 0.269 | 0.241 | 0.229 | 0.225 | 0.445 | 0.413 | 0.185 | 0.151 | 0.142 | 0.971
NCI-H1355 | 0.922 | 0.933 | 0.967 | 1.02 | 0.682 | 0.755 | 0.7 | 0.692 | 0.841 | 0.528 | 0.434 | 0.295 | 0.212 | 0.195 | 0.357 | 0.369 | 0.342 | 0.148 | 0.154 | 0.931
NCI-H1395 | 1.1 | 1.11 | 1.09 | 1.07 | 0.459 | 0.45 | 0.493 | 0.477 | 0.466 | 0.668 | 0.729 | 0.642 | 0.399 | 0.285 | 0.628 | 0.509 | 0.366 | 0.337 | 0.345 | 1.03
NCI-H1437 | 0.769 | 0.884 | 0.743 | 0.818 | 0.626 | 0.666 | 0.613 | 0.624 | 0.624 | 0.465 | 0.432 | 0.389 | 0.333 | 0.237 | 0.572 | 0.573 | 0.335 | 0.229 | 0.197 | 0.716
NCI-H1650 | 0.859 | 0.756 | 0.912 | 0.86 | 0.661 | 0.751 | 0.721 | 0.82 | 0.784 | 0.403 | 0.283 | 0.252 | 0.179 | 0.196 | 0.388 | 0.327 | 0.278 | 0.11 | 0.148 | 0.835
NCI-H1651 | 0.835 | 0.928 | 0.905 | 0.837 | 0.186 | 0.168 | 0.185 | 0.168 | 0.171 | 0.685 | 0.795 | 0.429 | 0.104 | 0.0989 | 0.592 | 0.627 | 0.495 | 0.12 | 0.0817 | 0.807
NCI-H1666 | 0.515 | 0.653 | 0.789 | 0.788 | 0.74 | 0.754 | 0.735 | 0.84 | 0.758 | 0.621 | 0.52 | 0.415 | 0.369 | 0.372 | 0.716 | 0.68 | 0.625 | 0.411 | 0.378 | 0.58
NCI-H1734 | 1.02 | 1.11 | 1.16 | 1.17 | 0.582 | 0.72 | 0.745 | 0.542 | 0.667 | 0.251 | 0.271 | 0.26 | 0.253 | 0.26 | 0.5 | 0.457 | 0.37 | 0.157 | 0.164 | 1.03
NCI-H1755 | 0.958 | 0.978 | 0.994 | 1.11 | 0.858 | 0.915 | 0.888 | 0.827 | 0.893 | 0.559 | 0.595 | 0.477 | 0.344 | 0.317 | 0.689 | 0.716 | 0.642 | 0.347 | 0.379 | 1.02
NCI-H1793 | 0.64 | 0.91 | 0.823 | 0.751 | – | 0.985 | 1.02 | 0.589 | 0.808 | 0.331 | 0.33 | 0.277 | 0.217 | 0.186 | 0.419 | 0.509 | 0.236 | 0.198 | 0.145 | 0.503
